Measured values reported in EP0085842A1, “Antimycosic agents” (BAYER AG, priority 1982, dated 1983).
Values after ≈ are worked out from the molar mass of the structure shown.

Tests used:
Trichophyton mentagr. = assay: Antimycotic in-vitro activity, serial dilution test (MIC); type: cell-based, Trichophyton mentagrophytes; settings: Sabouraud's milieu d'epreuve, 20°C, 96 h, inoculum 5 x 10^4 Keime/ml, read-out: MHK-Werte in γ/ml Nährmedium Trichophyton mentagr.
Method: (§1) Versuchsbeschreibung: • Die in-vitro-Prüfungen wurden im Reihenverdünnungstest mit Keiminokula von durchschnittlich 5 x 10^4 Keimen/ml Substrat durchgeführt. Als Nährmedium dienten • a) für Dermatophyten und Schimmelpilze: Sabouraud's milieu d'epreuve • b) für Hefen: • Fleischextrakt-Traubenzucker-Bouillon.
(§2) Die Bebrütungstemperatur betrug 20°C, die Bebrütungsdauer lag bei 24 bis 96 Stunden bei Hefen und 96 Stunden bei Dermatophyten und Schimmelpilzen.

Aspergillus fumigatus = assay: as above; type: cell-based; settings: Sabouraud's milieu d'epreuve, 20°C, 96 h, inoculum 5 x 10^4 Keime/ml, read-out: MHK-Werte in γ/ml Nährmedium Aspergillus fumigatus
Method: as §1, §2

Candida albicans = assay: as above; type: cell-based; settings: Fleischextrakt-Traubenzucker-Bouillon, 20°C, 24 to 96 h, inoculum 5 x 10^4 Keime/ml, read-out: MHK-Werte in γ/ml Nährmedium Candida albicans
Method: as §1, §2

Microsporum canis = assay: as above; type: cell-based; settings: Sabouraud's milieu d'epreuve, 20°C, 96 h, inoculum 5 x 10^4 Keime/ml, read-out: MHK-Werte in γ/ml Nährmedium Microsporum canis
Method: as §1, §2

Torulopsis glabrata = assay: as above; type: cell-based; settings: Nakaseomyces glabratus; Fleischextrakt-Traubenzucker-Bouillon, 20°C, 24 to 96 h, inoculum 5 x 10^4 Keime/ml; read-out: MHK-Werte in γ/ml Nährmedium Torulopsis glabrata
Method: as §1, §2

Candida-Zellen = assay: Antimycotic in-vivo activity (oral) in mouse candidosis; parameters: species or system Mäuse vom Typ SPF-CF1; settings: for Wirkung: mice infected i.v. with Candida, oral 50 - 100 mg/kg one hour before and seven hours after infection, survivors on day 6 p.i.; for Wirkung compared with known compounds (A), (B), (C) and (D): mouse candidosis, oral 50 - 100 mg/kg
Method: Mäuse vom Typ SPF-CF1 wurden intravenös mit 1 - 2 x 10^6 logarithmisch wachsenden Candida-Zellen, die in physiologischer Kochsalzlösung suspendiert werden, infiziert. Eine Stunde vor und sieben Sunden nach der Infektion werden die Tiere mit jeweils 50 - 100 mg/kg Körpergewicht der Präparate oral behandelt.
Unbehandelte Tiere starben 3 bis 6 Tage post infektionem. Die Überlebensrate am 6. Tag post infektionem betrug bei unbehandelten Kontrolltieren etwa 5 %.
+++++ = sehr gute Wirkung = 90 % Überlebende am 6.Tag p.i. ++++ = gute Wirkung = 80 % Überlebende am 6.Tag p.i. +++ = Wirkung = 60 % Überlebende am 6.Tag p.i. ++ = schwache Wirkung = 40 % Überlebende am 6.Tag p.i. + = Spur Wirkung = unter 40 % Überlebende am 6.Tag p.i. k.W. = keine Wirkung

[1] = system: Trichophyton mentagrophytes; assay: Antimycotic in-vivo activity (local) in experimental guinea pig trichophytosis; parameters: species or system Meerschweinchen; key: +++++: sehr gute Wirkung = keine Infektionszeichen am 12.-15.Tag p.i.; ++++: gute Wirkung = geringe Rötung, vereinzelt Schuppen; +++: Wirkung = Rötung, Schuppung, ohne Haarausfall; ++: schwache Wirkung = Rötung, Schuppung, Haarausfall; +: Spur Wirkung = flächiger Haarausfall, entzündliche Hautreaktion
[2] = local treatment, trichophytosis model
[3] = local, 1 x daily from day 3 p.i., 15 %ige Lösung in Dimethylsulfoxid:Glycerin = 1:4, infection signs day 12-15 p.i.

Compound | MIC (Trichophyton mentagr.) [µg/mL] | MIC (Aspergillus fumigatus) [µg/mL] | MIC (Candida albicans) [µg/mL] | MIC (Microsporum canis) [µg/mL] | MIC (Torulopsis glabrata) [µg/mL] | Wirkung (Candida-Zellen) | Wirkung compared with known compounds (A), (B), (C) and (D) (Candida-Zellen) | Wirkung [1, 2] | Wirkung [1, 3]
CC(CF)(CF)C(O)(COc1ccc(Cl)cc1Cl)Cn1ccnc1 (stereo not shown) [Beispiel 32] | 2 (≈ 5.27 µM) | 32 (≈ 84.4 µM) | 2 (≈ 5.27 µM) | 16 (≈ 42.2 µM) | 8 (≈ 21.1 µM) | ++++ (gute Wirkung = 80 % Überlebende am 6.Tag p.i.) | bessere Wirkung | Wirkung bis gute Wirkung | +++
CC(C)(CF)C(O)(COc1ccc(F)cc1)Cn1cncn1 (stereo not shown) [Beispiel 1, 4-Fluor-2-(4-fluorphenoxymethyl)-3,3-dimethyl-1-(1,2,4-triazol-1-yl)-butan-2-ol] | 4 (≈ 12.8 µM) | 8 (≈ 25.7 µM) | < 1 | 8 (≈ 25.7 µM) | 16 (≈ 51.4 µM) | +++ (Wirkung = 60 % Überlebende am 6.Tag p.i.) | bessere Wirkung | – | ++
CC(CF)(CF)C(O)(COc1ccc(Cl)cc1)Cn1cncn1 (stereo not shown) [Beispiel 13] | < 1 | 4 (≈ 11.6 µM) | < 1 | 2 (≈ 5.78 µM) | 8 (≈ 23.1 µM) | +++++ (sehr gute Wirkung = 90 % Überlebende am 6.Tag p.i.) | bessere Wirkung | Wirkung bis gute Wirkung | +++
CC(C)(CF)C(O)(CSc1ccc(Cl)cc1)Cn1cncn1 (stereo not shown) [Beispiel 10] | < 1 | < 1 | 4 (≈ 11.6 µM) | < 1 | 16 (≈ 46.5 µM) | ++++ (gute Wirkung = 80 % Überlebende am 6.Tag p.i.) | bessere Wirkung | Wirkung bis gute Wirkung | ++++
CC(C)(CF)C(O)(COc1ccc(Cl)cc1Cl)Cn1cncn1 (stereo not shown) [Beispiel 9] | < 1 | 8 (≈ 22.1 µM) | 4 (≈ 11 µM) | 2 (≈ 5.52 µM) | 4 (≈ 11 µM) | +++ (Wirkung = 60 % Überlebende am 6.Tag p.i.) | bessere Wirkung | Wirkung bis gute Wirkung | ++++
Cc1cc(Cl)ccc1OCC(O)(Cn1cncn1)C(C)(CF)CF (stereo not shown) [Beispiel 15] | < 1 | 8 (≈ 22.2 µM) | < 1 | < 1 | 4 (≈ 11.1 µM) | ++++ (gute Wirkung = 80 % Überlebende am 6.Tag p.i.) | bessere Wirkung | Wirkung bis gute Wirkung | ++++
Cc1cc(Cl)ccc1OCC(O)(Cn1cncn1)C(C)(C)CF (stereo not shown) [Beispiel 8] | < 1 | 4 (≈ 11.7 µM) | < 1 | < 1 | 2 (≈ 5.85 µM) | +++ (Wirkung = 60 % Überlebende am 6.Tag p.i.) | bessere Wirkung | Wirkung bis gute Wirkung | +++
CC(CF)(CF)C(O)(CCc1ccc(Cl)cc1)Cn1cncn1 (stereo not shown) [Beispiel 28] | < 1 | < 1 | 2 (≈ 5.82 µM) | 2 (≈ 5.82 µM) | 2 (≈ 5.82 µM) | ++++ (gute Wirkung = 80 % Überlebende am 6.Tag p.i.) | bessere Wirkung | Wirkung bis gute Wirkung | ++++

More lines, main results first:

MIC (Trichophyton mentagr.) [µg/mL] | MIC (Aspergillus fumigatus) [µg/mL] | MIC (Candida albicans) [µg/mL] | MIC (Microsporum canis) [µg/mL] | MIC (Torulopsis glabrata) [µg/mL] | Compound | Wirkung (Candida-Zellen) | Wirkung compared with known compounds (A), (B), (C) and (D) (Candida-Zellen) | Wirkung [1, 2] | Wirkung [1, 3]
< 1 | 4 (≈ 10.5 µM) | < 1 | < 1 | 4 (≈ 10.5 µM) | CC(CF)(CF)C(O)(COc1ccc(Cl)cc1Cl)Cn1cncn1 (stereo not shown) [Beispiel 14] | +++++ (sehr gute Wirkung = 90 % Überlebende am 6.Tag p.i.) | bessere Wirkung | Wirkung bis gute Wirkung | ++++
< 1 | < 1 | 2 (≈ 6.21 µM) | 4 (≈ 12.4 µM) | 16 (≈ 49.7 µM) | C=CC(C)(C)C(O)(COc1ccc(Cl)cc1)Cn1cncn1 (stereo not shown) [Beispiel 22] | +++++ (sehr gute Wirkung = 90 % Überlebende am 6.Tag p.i.) | bessere Wirkung | – | ++
< 1 | < 1 | 4 (≈ 11.1 µM) | 2 (≈ 5.55 µM) | 8 (≈ 22.2 µM) | CC(C)(CF)C(O)(CCc1ccc(Cl)cc1Cl)Cn1cncn1 (stereo not shown) [Beispiel 26] | +++ (Wirkung = 60 % Überlebende am 6.Tag p.i.) | bessere Wirkung | Wirkung bis gute Wirkung | +++
< 1 | < 1 | < 1 | < 1 | < 1 | C=CC(C)(C)C(O)(COc1ccc(-c2ccccc2)cc1)Cn1ccnc1 (stereo not shown) [Beispiel 5, 4-(4-Biphenylyloxymethyl)-3,3-dimethyl-4-hydroxy-5-(imidazol-1-yl)-1-penten] | ++++ (gute Wirkung = 80 % Überlebende am 6.Tag p.i.) | bessere Wirkung | Wirkung bis gute Wirkung | +++
< 1 | < 1 | < 1 | 2 (≈ 6.1 µM) | < 1 | CC(C)(CF)C(O)(COc1ccc(Cl)cc1)Cn1cncn1 (stereo not shown) [Beispiel 7] | +++++ (sehr gute Wirkung = 90 % Überlebende am 6.Tag p.i.) | bessere Wirkung | Wirkung bis gute Wirkung | +++
< 1 | < 1 | < 1 | < 1 | 2 (≈ 6.14 µM) | CC(C)(CF)C(O)(CCc1ccc(Cl)cc1)Cn1cncn1 (stereo not shown) [Beispiel 25] | +++ (Wirkung = 60 % Überlebende am 6.Tag p.i.) | bessere Wirkung | Wirkung bis gute Wirkung | ++++
